We go through 7 molecules from patent US9789100B2, “Compounds as rearranged during transfection (RET) inhibitors” (GlaxoSmithKline Intellectual Property Development Limited, priority 2013, dated 2017).

Assay [1] addresses constitutive RET kinase phosphorylation in TT cells (Homo sapiens (Human), UniProt P07949, C634W). The assay can be described thus: RET kinase cell-based mechanistic assay.
Method: RET Kinase Cell-Based Mechanistic Assay
The potency of the compound of the invention was tested for its ability to inhibit constitutive RET kinase phosphorylation in cell-based assay. […] 1.0E5 TT cells/well were plated in a 96-well cell culture plate and allowed to adhere overnight. […] IC50s were fitted using GraphPad Prism to a sigmoidal dose response.
Assay [2] relates to TT cells. The assay can be described thus: RET kinase cell-based proliferation assay. Further details: species or system human. The note with it: 192 h, read-out: RET IC50. From the text: RET Kinase Cell-Based Proliferation Assay
In assay [3] the target is Human RET kinase cytoplasmic domain (Homo sapiens (Human), UniProt P07949). The assay can be described thus: RET kinase enzymatic assay. In kind it is biochemical. The note with it: human RET kinase enzymatic assay (Table 2). How it is done:
RET Kinase Enzymatic Assay
GST-RET was purified using glutathione sepharose chromatography. The RET kinase enzymatic assay was performed in a total volume of 10 uL with increasing concentrations of RET kinase inhibitor as a singlet in a 384 well format as follows: RET inhibitor compound plates are prepared by adding 100 nL of RET inhibitor at different concentrations to a 384-well plate. 5 μL/well of a 2× enzyme mix (50 mM HEPES (4-(2-hydroxyethyl)-1-piperazineethanesulfonic acid); 1 mM CHAPS (3[(3-cholamidopropyl)dimethylammonio]-1-propanesulfonate); 0.1 mg/mL BSA (bovine serum albumin); 1 mM DTT (dithiothreitol); 0.2 nM RET kinase) was added to the 384-well plate and incubated for 30 minutes at 23° C.

Setting [4] is: human RET kinase cell-based proliferation assay, TT cells, eight days (Table 4).

pIC50: −log10 of the molar value. Structures can show the parent of a compound that is named as a salt. Where two headings read alike, the source gives them in different places. Bounds are passed on as bounds.

Human RET kinase cytoplasmic domain, sequence (P07949 658-1114): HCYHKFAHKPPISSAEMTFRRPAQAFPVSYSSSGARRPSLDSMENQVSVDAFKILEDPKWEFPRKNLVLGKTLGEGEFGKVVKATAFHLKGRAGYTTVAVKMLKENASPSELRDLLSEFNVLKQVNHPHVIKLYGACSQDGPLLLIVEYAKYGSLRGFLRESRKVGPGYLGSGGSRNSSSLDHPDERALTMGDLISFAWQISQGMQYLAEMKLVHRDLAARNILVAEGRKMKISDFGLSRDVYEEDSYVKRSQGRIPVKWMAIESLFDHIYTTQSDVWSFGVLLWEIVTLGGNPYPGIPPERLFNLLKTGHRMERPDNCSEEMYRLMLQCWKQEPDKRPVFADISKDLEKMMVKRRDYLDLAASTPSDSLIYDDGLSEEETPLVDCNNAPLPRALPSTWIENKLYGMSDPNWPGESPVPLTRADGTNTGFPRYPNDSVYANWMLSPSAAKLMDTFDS
constitutive RET kinase phosphorylation in TT cells, sequence (P07949 29-1114 C634W): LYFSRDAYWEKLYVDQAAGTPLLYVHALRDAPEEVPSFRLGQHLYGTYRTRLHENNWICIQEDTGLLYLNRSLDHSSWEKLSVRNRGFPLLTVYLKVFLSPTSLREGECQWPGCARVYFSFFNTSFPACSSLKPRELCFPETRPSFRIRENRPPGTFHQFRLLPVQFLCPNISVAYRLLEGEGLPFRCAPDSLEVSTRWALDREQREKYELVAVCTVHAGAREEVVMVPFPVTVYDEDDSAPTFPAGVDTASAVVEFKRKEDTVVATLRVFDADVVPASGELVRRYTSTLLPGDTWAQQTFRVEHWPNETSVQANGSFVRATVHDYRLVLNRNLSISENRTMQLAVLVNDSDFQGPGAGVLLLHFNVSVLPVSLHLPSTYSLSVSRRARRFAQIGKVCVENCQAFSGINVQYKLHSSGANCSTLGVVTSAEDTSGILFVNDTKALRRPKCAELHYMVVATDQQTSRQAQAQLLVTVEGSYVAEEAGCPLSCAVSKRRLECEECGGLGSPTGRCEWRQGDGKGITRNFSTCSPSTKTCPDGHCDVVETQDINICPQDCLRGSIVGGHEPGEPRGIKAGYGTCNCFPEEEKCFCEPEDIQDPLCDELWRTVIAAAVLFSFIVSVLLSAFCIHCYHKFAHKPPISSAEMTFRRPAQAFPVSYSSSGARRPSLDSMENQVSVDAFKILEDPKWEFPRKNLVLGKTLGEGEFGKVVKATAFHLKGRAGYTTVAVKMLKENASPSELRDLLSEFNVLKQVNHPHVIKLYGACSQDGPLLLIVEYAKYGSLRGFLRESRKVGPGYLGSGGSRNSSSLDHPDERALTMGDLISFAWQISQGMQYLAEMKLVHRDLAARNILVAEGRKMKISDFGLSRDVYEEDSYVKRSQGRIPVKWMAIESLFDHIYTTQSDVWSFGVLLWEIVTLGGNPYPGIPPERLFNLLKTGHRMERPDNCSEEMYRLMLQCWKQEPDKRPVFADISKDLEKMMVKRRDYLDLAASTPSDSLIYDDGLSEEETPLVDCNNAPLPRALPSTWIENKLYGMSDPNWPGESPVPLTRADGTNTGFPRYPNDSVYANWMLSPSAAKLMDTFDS

Take `CCOc1cc(=O)[nH]cc1-c1ccc(CC(=O)Nc2ccc(C(C)(C)C(F)(F)F)nc2)c(F)c1` [Example 37, 2-(4-(4-ethoxy-6-oxo-1,6-dihydropyridin-3-yl)-2-fluorophenyl)-N-(6-(1,1,1-trifluoro-2-methylpropan-2-yl)pyridin-3-yl)acetamide hydrochloride]: the pIC50 in assay [1] is 6.30 to 7.00; in assay [2] (Homo sapiens, TT) it was 5.00 to 6.30; in assay [3] it was greater than 7.00.

In the case of `CCOc1cc(-c2ccc(CC(=O)Nc3cc(OCCN4CCOCC4)cc(C(F)(F)F)c3)c(F)c2)c[nH]c1=O` [Example 39, 2-(4-(5-ethoxy-6-oxo-1,6-dihydropyridin-3-yl)-2-fluorophenyl)-N-(3-(2-morpholinoethoxy)-5-(trifluoromethyl)phenyl)acetamide], the pIC50 was greater than 7.00 in assay [1], 6.30 to 7.00 in assay [2] (setting [4]) and greater than 7.00 in assay [3].

Consider `CCOc1cc(-c2ccc(CC(=O)Nc3cc(C(C)(C)C(F)(F)F)nn3C)c(F)c2)c[nH]c1=O` [Example 41, 2-(4-(5-ethoxy-6-oxo-1,6-dihydropyridin-3-yl)-2-fluorophenyl)-N-(1-methyl-3-(1,1,1-trifluoro-2-methylpropan-2-yl)-1H-pyrazol-5-yl)acetamide hydrochloride], for which the pIC50 is greater than 7.00 in assay [1]; 6.30 to 7.00 in assay [2] (Homo sapiens, TT); greater than 7.00 in assay [3].

Consider `CCOc1cc(-c2ccc(CC(=O)Nc3cc(C(C)(C)C(F)(F)F)n[nH]3)c(F)c2)c[nH]c1=O` [Example 42, 2-(4-(5-ethoxy-6-oxo-1,6-dihydropyridin-3-yl)-2-fluorophenyl)-N-(3-(1,1,1-trifluoro-2-methylpropan-2-yl)-1H-pyrazol-5-yl)acetamide hydrochloride], for which the negative-log IC50 (pIC50) is greater than 7.00 in assay [1]; greater than 7.00 in assay [2] (Homo sapiens, TT); greater than 7.00 in assay [3].

With `CCOc1cc(-c2ccc(CC(=O)Nc3ccc(CC(F)(F)CO)c(C(F)(F)F)c3)c(F)c2)c[nH]c1=O` [Example 43, N-(4-(2,2-difluoro-3-hydroxypropyl)-3-(trifluoromethyl)phenyl)-2-(4-(5-ethoxy-6-oxo-1,6-dihydropyridin-3-yl)-2-fluorophenyl)acetamide], the negative-log IC50 (pIC50) in assay [1], in assay [2] (setting [4]) and in assay [3] was greater than 7.00 throughout.

As to `CCOc1cc(-c2ccc(CC(=O)Nc3cc(-c4cnn(C)c4)cc(C(F)(F)F)c3)c(F)c2)c[nH]c1=O` [Example 45, 2-(4-(5-ethoxy-6-oxo-1,6-dihydropyridin-3-yl)-2-fluorophenyl)-N-(3-(1-methyl-1H-pyrazol-4-yl)-5-(trifluoromethyl)phenyl)acetamide hydrochloride], the pIC50 in assay [1] is greater than 7.00; in assay [2] (Homo sapiens, TT), 6.30 to 7.00; in assay [3], greater than 7.00.

Regarding `CCOc1cc(-c2ccc(CC(=O)Nc3cc(OCCN(C)C)cc(C(F)(F)F)c3)c(F)c2)c[nH]c1=O` [Example 46, N-(3-(2-(dimethylamino)ethoxy)-5-(trifluoromethyl)phenyl)-2-(4-(5-ethoxy-6-oxo-1,6-dihydropyridin-3-yl)-2-fluorophenyl)acetamide], the pIC50 in assay [1], in assay [2] (setting [4]) and in assay [3] was greater than 7.00 in each case.

The term pIC50 denotes the IC50 on a negative log10 scale, so that one unit is a factor of ten.
